# Values of other authors as cited in patent publication US20230000835A1, “LYSINE-SPECIFIC HISTONE DEMETHYLASE INHIBITORS FOR THE TREATMENT OF MYELOPROLIFERATIVE NEOPLASMS” (Imago Biosciences, Inc., priority 2019, published 2023).
# Test system: primary myelofibrosis patients
# Conditions: 50 to 100 mg/day in combination with prednisone; cited from earlier work
structure (smiles),measurement,value
O=C1CCC(N2C(=O)c3ccccc3C2=O)C(=O)N1 (centres unmarked) [Thalidomide],primary myelofibrosis patients with improved anemia and thrombocytopenia,approximately 60%
same,primary myelofibrosis patients with reduced spleen size,approximately 20%
